Laboratory results as given in patent publication US20050209157A1, “Short bioactive peptides and methods for their use” (priority 2001, published 2005).
≈ marks a conversion by molar mass, not a printed value. Entries after “also recorded” stand apart in the source; their conditions may differ. Where two headings read alike, the source gives them in different places. Non-standard residues stand in square brackets, D forms with d. Residues, ends and D or L forms follow the SMILES beside them. No end group written: not given here.

What was measured:
[1] = tested on: Stapholococcus aureus ATCC 25923; assay: Antimicrobial assay I, modified protocol (tryptic soy broth), MBC; settings: minimum bactericidal concentration, Table 4
[2] = tested on: Escherichia coli ATCC 25922; assay: as above; settings: minimum bactericidal concentration, Table 4
cancer cell lines = assay: Anti-cancer assays, MTT, summary over the cancer cell lines; assay type: cell-based; settings: X = preferred
[3] = tested on: Pseudomonas aeruginosa ATCC 27853; assay: Antimicrobial assay I, modified protocol (tryptic soy broth), MBC; settings: minimum bactericidal concentration, Table 4
Procedure: The preparation of all media, stock solutions, and dilutions took place in a laminar flow hood to prevent contamination. Bacterial cells were freshly grown on antibiotic medium 2 agar slants (pH 7.0 at 25° C.). Bacteria were suspended and diluted in antibiotic medium 3 to about 10^4 cfu/ml and used as the inoculum. Sample solutions (100 μl/well) were added to plates according to the plate layout. Inoculum (100 μl/well) was added to achieve a final concentration of 5×10^3 cfu/ml. Negative controls received 100 μl saline and 100 μl growth medium. Positive controls received 100 μl saline and 100 μl inoculum. Bacterial plates were incubated at 37° C. for 24 hours.
However, the data for Table 4 were obtained with a modified protocol wherein the medium was tryptic soy broth, inocolum strength was approximately 10^4 CFU per ml, and values determined were minimum bactericidal concentrations (MBC) or minimum fungicidal concentrations (MFC).
MBC or MFC values are in μg/mL. E. coli is Escherichia coli ATCC accession number 25922; P. aerug is Pseudomonas aeruginosa ATCC accession number 27853, S. aur. is Stapholococcus aureus ATCC accession number 25923; Candida is Candida albicans ATCC accession number 10231.

[4] = tested on: Candida albicans ATCC 10231; assay: Antimicrobial assay I, modified protocol (tryptic soy broth), MFC; settings: minimum fungicidal concentration, Table 4
in vitro [5] = settings: human, WI38 normal lung fibroblast cells
Procedure: (§3) Viability of cells is determined by the dye response. In the following procedure, approximately 1.5×10^4 cells per well were added and viability was determined with the cells in a semi-confluent state. The assay was performed in a 96-well microtiter plate. After addition of peptide, the plate was set for 24 hours. MTT (5 mg/ml in phenol red-free RPMI-1640, 20 μl) was added to each well including positive control wells untreated with peptide. The plate was incubated at 37° C. for 4 hours. The liquid contents of each well was removed, and isopropanol with 0.1 M HCl (100 μl) was added to each well. The plate was sealed with parafilm to prevent evaporation of the isopropanol. The plate is allowed to rest for 5-10 minutes in order to solubilize the precipitate. Purified water (100 μl) was added to each well. Absorbance was determined with an ELISA Reader instrument. Color intensity at 540 nm is proportional to viability of cells.
(§4) WI38 (ATCC No. CCL75) is a normal fibroblast line of lung diploid cells, MCF7 (ATCC No. HTB22) is a breast adenocarcinoma tumor cell line, SW480 (ATCC No. CCL228) is a colon adenocarcinoma tumor cell line, BMKC is a cloned melanoma line derived from Bowes melanoma line HMCB (ATCC No. CRL9607), H1299 (ATCC No. CRL5803) is a lung large cell carcinoma tumor line, HeLaS3 (ATCC No. CCL2.2) is a cervical epitheleal carcinoma tumor cell line, and PC3 (ATCC No. CRL1435) is a prostate adenocarcinoma tumor cell line.

in vitro [6] = assay type: cell-based, human; settings: human, human red blood cells
[7] = tested on: yeast (Saccharomyces cerevisiae); assay: Antimicrobial assay I, yeast assay in RPMI 1640; assay type: cell-based; settings: RPMI 1640 media
[8] = tested on: Staphylococcus aureus ATCC 6538; assay: Antimicrobial assay I, MIC by OD measurement; assay type: cell-based; settings: 37° C. for 24 hours, absorbance 620 nm
[9] = tested on: Pseudomonas aeruginosa ATCC 9027; assay: Antimicrobial assay I, MIC by OD measurement; assay type: cell-based; settings: 37° C. for 24 hours, absorbance 620 nm
P. aeruginosa H774 = assay type: cell-based, Pseudomonas aeruginosa; settings: P. aeruginosa H744; nalidixic acid + peptide at ¼ MIC; 0.5 or less = synergy
Procedure, shortened: (§1)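 FIC index, computed as 0.25 plus the ratio of combination to single-agent antibiotic MIC, defines synergy when 0.5 or below. Peptide fixed at one quarter MIC while chloramphenicol or nalidixic acid was serially diluted two-fold; antibiotic-alone MICs served as baselines.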

P. aeruginosa = assay type: cell-based, Pseudomonas aeruginosa; settings: P. aeruginosa H744; MIC of nalidixic acid with peptide at ¼ MIC
Procedure, shortened: as §1

P. aeruginosa H374 = assay type: cell-based, Pseudomonas aeruginosa; settings: for FIC Index: 0.5 or less = synergy
Procedure, shortened: as §1

[10] = tested on: hairless rat skin burn wound; assay: In vivo wound healing, TCA chemically induced skin burn wound; settings: for Epidermal thickening / Fibroblast cells in test area / Inflammatory response area / Leukocyte cells in test area / Wound closure: rat model, TCA burn treated by peptide; for Wound closure: 26 days
Source text: The hairless rat was chosen as a suitable test model. Female hairless rats of 100 to 150 grams weight and 8 to 12 weeks age were used in the study.
As an alternative, 70% trichloroacetic (TCA) dissolved in 70% ethanol was employed to induce the dermal erosion patches. […] As the chemical burn agent, the TCA treatment inflicted on the rats far less trauma and mortality than occurred with the Phenol model.
The experimental Protocol procedure steps were as follows: • 1. The animal was anesthetized (40 mg/kg Phenobarbital). • 2. Color photographs of the animal's back (with six separate peels) were taken before each treatment and daily thereafter. • 3. Rat skin surface was prepared by wiping with 70% ethanol. Filter paper discs (1.1 cm diameter) were soaked in 70% TCA/ethanol. • 4. The discs were placed on the back of the hairless rat for 30 minutes [6 disks providing for 2 control (no peptide treatment) disks and 4 disks for peels to receive peptide treatment.] • 5. After a 30 minute burn the discs were removed. Twenty four hours later, different peptide solutions (1500 ppm in saline) were applied to four peels, and saline was applied to the two control peels. • 6. Peptide solutions (and saline for the controls) were applied to the six wounds with a soft brush each day thereafter. • 7. It took approximately one month for the wounds to heal (complete skin closure with stabilized epidermis), after which the animal was sacrificed. • 8. The treated skin was harvested, section stained with trichrome, and mounted on slides.
The percentage of wound closure for each peel (six sites) was measured each day until the animal was sacrificed. The percentage closure was determined by measuring on the animal photographs the area of the remaining scab relative to the area of the initial scar after the burn. These measurements were made by digitizing and analyzing the peels using the Sigma Plot ProScan 4 program.
This provided a measure of the post-TCA burn treatment of the inflammatory response in each peel site.
The extent of epidermal thickening (hyperkeratosis) at each site was also determined by measurement with the Sigma Plot program applied to the stained section slides of the various wound areas and the normal untreated skin (control) surrounding the peels. At magnifications of 100× to 320×, the microphotographs of the color slides provided a powerful tool for such quantification of the extent of hyperkeratosis evident in each peel.
Treatment of the section slides with selective stains produced identifiable evidence of the presence of both leukocyte and fibroblast cells in the wound areas. This was also quantified by the Sigma Plot program.
The above described animal model and protocols were employed in the testing of approximately 20 of the peptides listed in Table 48 (and other peptides for comparison) as preferred FLAK peptides for wound healing.

PC3 = assay: Anti-cancer assay, MTT, LD50; assay type: cell-based; settings: 24 hours with peptide, prostate adenocarcinoma
Source text: (§2) Numbers are LD50 values (μg/mL).

HeLaS3 = assay: Anti-cancer assay, MTT, LD50; assay type: cell-based; settings: 24 hours with peptide, cervical carcinoma
Source text: as §2

BMKC = assay: Anti-cancer assay, MTT, LD50; assay type: cell-based; settings: BMKC cloned melanoma line, 24 hours with peptide
Source text: as §2

H1299 = assay: Anti-cancer assay, MTT, LD50; assay type: cell-based; settings: 24 hours with peptide, lung large cell carcinoma
Source text: as §2

MCF7 = assay: Anti-cancer assay, MTT, LD50; assay type: cell-based; settings: MCF7 breast adenocarcinoma line, MTT, 24 hours with peptide
Source text: as §2

SW480 = assay: Anti-cancer assay, MTT, LD50; assay type: cell-based; settings: SW480 colon adenocarcinoma line, 24 hours with peptide
Source text: as §2

WI38 = settings: MTT, 24 hours with peptide; for WI38 LD50: normal fibroblast line
Procedure: as §3, §4

[11] = tested on: human red blood cells (RBC); assay: in vitro; assay type: cell-based; settings: hemolytic assay, concentration at 50% hemolysis, 1 hour at 37° C.
[12] = WI-38 LD50, Table 26, valine substitution
[13] = pH 7, Table 26, valine substitution, read-out: Hemolysis RBC LD50

## CC(C)C[C@H](NC(=O)[C@H](C)NC(=O)[C@H](CCCCN)NC(=O)[C@H](CCCCN)NC(=O)[C@H](CC(C)C)NC(=O)[C@H](C)NC(=O)[C@H](CCCCN)NC(=O)[C@H](CCCCN)NC(=O)[C@H](CC(C)C)NC(=O)[C@@H](CCCCN)NC(=O)[C@@H](CCCCN)NC(=O)[C@H](CC(C)C)NC(=O)[C@H](C)NC(=O)[C@H](CCCCN)NC(=O)[C@H](CCCCN)NC(=O)[C@H](CC(C)C)NC(=O)[C@H](C)NC(=O)[C@H](CCCCN)NC(=O)[C@H](CC(C)C)NC(=O)[C@H](C)NC(=O)[C@H](CC(C)C)NC(=O)[C@H](C)NC(=O)[C@@H](N)Cc1ccccc1)C(=O)O [compound 37] (H-FALALKALKKAL[dK][dK]LKKALKKAL-OH; N-terminus assumed)
[1]
  MBC S. aur A.25923: 40 µg/mL (≈ 15.8 µM)
[2]
  MBC E. coli A.25922: 8 µg/mL (≈ 3.15 µM)
Cancer cell lines
  Anti-cancer (preferred peptide): X (Preferred anticancer peptides can be selected as having LD50 values of less than or equal to about 25 μg/ml)
[3]
  MBC P. aerug A.27853: 8 µg/mL (≈ 3.15 µM)
[4]
  MFC Candida A.10231: >50 µg/mL

## CC[C@H](C)[C@H](N)C(=O)N[C@@H](CC(C)C)C(=O)N1CCC[C@H]1C(=O)N[C@@H](Cc1c[nH]c2ccccc12)C(=O)N[C@@H](CCCCN)C(=O)N[C@@H](Cc1c[nH]c2ccccc12)C(=O)N1CCC[C@H]1C(=O)N[C@@H](Cc1c[nH]c2ccccc12)C(=O)N[C@@H](Cc1c[nH]c2ccccc12)C(=O)N1CCC[C@H]1C(=O)N[C@@H](Cc1c[nH]c2ccccc12)C(=O)N[C@@H](CCCNC(=N)N)C(=O)N[C@@H](CCCNC(=N)N)C(=O)O [compound 91]
Cancer cell lines
  Anti-cancer (preferred peptide): X (Preferred anticancer peptides can be selected as having LD50 values of less than or equal to about 25 μg/ml)

## FAKFLAKFLKKAL-NH2 [compound 111]
[1]
  MBC S. aur A.25923: 40 µg/mL
In vitro [5]; [12]
  CC50 at 24 h: 25 µg/mL
In vitro [6]; [13]
  HC50 at 1 h: 5 µg/mL
[2]
  MBC E. coli A.25922: 30 µg/mL
Cancer cell lines
  Anti-cancer (preferred peptide): X (Preferred anticancer peptides can be selected as having LD50 values of less than or equal to about 25 μg/ml)
[4]
  MFC Candida A.10231: INACT

## FAKKLAKLAKKLLAL-NH2 [compound 38]
[1]
  MBC S. aur A.25923: 15 µg/mL
In vitro [5]; [12]
  CC50 at 24 h: 100 µg/mL
In vitro [6]; [13]
  HC50 at 1 h: 350 µg/mL
[2]
  MBC E. coli A.25922: 15 µg/mL
Cancer cell lines
  Anti-cancer (preferred peptide): X (Preferred anticancer peptides can be selected as having LD50 values of less than or equal to about 25 μg/ml)
[3]
  MBC P. aerug A.27853: 30 µg/mL

## FAKLLAKALKKAL-NH2 [P102, FAKLLAKALKKAL-NH2]
In vitro [5]; LD50 WI38, WI38 normal lung fibroblast line, MTT, 24 hours with peptide
  CC50 at 24 h: 73 µg/mL
[7]
  yeast (MIC or MFC): 50 µg/mL
In vitro [6]; pH 7, hemolytic assay, concentration at 50% hemolysis, 1 hour at 37° C., read-out: LD50
  HC50 at 1 h: 500 µg/mL
[8]
  staph6538 (MIC): 5 µg/mL
[9]
  paerug9027 (MIC): 10 µg/mL
P. aeruginosa H774
  FIC Index: 1.25
P. aeruginosa
  MIC Nal-comb.: 624 µg/mL
P. aeruginosa H374; MIC of chloramphenicol with peptide at ¼ MIC
  MIC Cm-comb.: 16 µg/mL
P. aeruginosa H374; MIC of nalidixic acid with peptide at ¼ MIC
  MIC Nal-comb.: 5000 µg/mL
P. aeruginosa H374; chloramphenicol + peptide at ¼ MIC
  FIC Index: 1.25
P. aeruginosa H374; nalidixic acid + peptide at ¼ MIC, FIC=0.25+MIC comb/MIC alone
  FIC Index: 1.25
[10]
  Epidermal thickening: 50 % of control (TCA only)
  Fibroblast cells in test area: 220 % of normal skin
  Inflammatory response area: 27 % of healed scar
  Leukocyte cells in test area: 370 % of normal skin
  Wound closure: 96.7 % of initial wound
PC3
  PC3 LD50: 66 µg/mL
HeLaS3
  HeLaS3 LD50: 43 µg/mL
BMKC
  LD50 BMKC: 60 µg/mL
H1299
  H1299 LD50: 27 µg/mL
MCF7
  LD50 MCF7: 60 µg/mL
SW480
  LD50 SW480: 57 µg/mL
WI38
  WI38 LD50: 73 µg/mL

## KWKLFKKALKKLKKALKKAL-NH2 [compound 104]
Cancer cell lines
  Anti-cancer (preferred peptide): X (Preferred anticancer peptides can be selected as having LD50 values of less than or equal to about 25 μg/ml)

## KWKLFKKKTKLFKKFAKKLAKKL-OH [compound 81]
Cancer cell lines
  Anti-cancer (preferred peptide): X (Preferred anticancer peptides can be selected as having LD50 values of less than or equal to about 25 μg/ml)

## MPKEKVFLKIEKMGRNIRN-NH2 [P107, reference compound]
[7]
  yeast (MIC or MFC): > (> indicates greater than 200 μg/mL)
[11]
  LD50: > (> indicates greater than 1000)
[8]
  staph6538 (MIC): > (> indicates greater than 200 μg/mL)
[9]
  paerug9027 (MIC): > (> indicates greater than 200 μg/mL)
[10]; hairless rat, full wound closure at 26 days
  rate of wound closure: small advantage in rate of wound closure over the other peptides and no peptide
[10]; hairless rat, peptide solutions 1500 ppm in saline, topical daily
  ability to limit post-TCA burn inflammatory responses: superior in this respect
[10]; hairless rat, peptide solutions 1500 ppm in saline, topical daily, listed as SEQ ID NO:71
  hyperkeratosis (epidermal thickening): lowest evidence of hyperkeratosis (epidermal thickening); also recorded: substantially no hyperkeratosis as compared to the TCA burn untreated control
[10]
  Epidermal thickening: 33 % of control (TCA only)
  Fibroblast cells in test area: 420 % of normal skin
  Inflammatory response area: 0 % of healed scar
  Leukocyte cells in test area: 400 % of normal skin
  Wound closure: 100 % of initial wound
PC3
  PC3 LD50: > (> indicates greater than 1000)
HeLaS3
  HeLaS3 LD50: > (> indicates greater than 1000)
BMKC
  LD50 BMKC: > (> indicates greater than 1000)
H1299
  H1299 LD50: > (> indicates greater than 1000)
MCF7
  LD50 MCF7: > (> indicates greater than 1000)
SW480
  LD50 SW480: > (> indicates greater than 1000)
WI38
  WI38 LD50: > (> indicates greater than 1000)
WI38; WI38 normal lung fibroblast line
  LD50 WI38: > (> indicates greater than 1000)

## VAKALKALLKALKAL-NH2 [compound 501]
In vitro [5]; [12]
  CC50 at 24 h: 26 µg/mL
In vitro [6]; [13]
  HC50 at 1 h: 15 µg/mL
Cancer cell lines
  Anti-cancer (preferred peptide): X (Preferred anticancer peptides can be selected as having LD50 values of less than or equal to about 25 μg/ml)

## VAKLLAKALKKLL-NH2 [compound 506]
In vitro [5]; [12]
  CC50 at 24 h: 75 µg/mL
In vitro [6]; [13]
  HC50 at 1 h: 120 µg/mL
Cancer cell lines
  Anti-cancer (preferred peptide): X (Preferred anticancer peptides can be selected as having LD50 values of less than or equal to about 25 μg/ml)
